From ChEMBL document CHEMBL1201862, “PubChem BioAssay data set” (2004)
The source made the active and inactive calls. Rule as the data show it, for most assays here: actives have a measured EC50 and inactives only a lower limit.

Columns and labels:
[1] = viability of uninfected HEp-2 cells – cell-based, HTS, cytotoxicity control for RSV inhibitor project, dose response (AID 2410); type: functional; details: human respiratory syncytial virus
Protein RecA = biological target: T1, Protein RecA (Mycobacterium tuberculosis, UniProt P9WHJ3); assay: Fluorescence Cell-Free Homogeneous Dose Retest to Identify Inhibitors of RecA-Intein Splicing Activity. [Related pubchem assays (depositor defined):AID2097, AID2223, AID489010, AID492950]; type: functional
T1 sequence (P9WHJ3 whole entry): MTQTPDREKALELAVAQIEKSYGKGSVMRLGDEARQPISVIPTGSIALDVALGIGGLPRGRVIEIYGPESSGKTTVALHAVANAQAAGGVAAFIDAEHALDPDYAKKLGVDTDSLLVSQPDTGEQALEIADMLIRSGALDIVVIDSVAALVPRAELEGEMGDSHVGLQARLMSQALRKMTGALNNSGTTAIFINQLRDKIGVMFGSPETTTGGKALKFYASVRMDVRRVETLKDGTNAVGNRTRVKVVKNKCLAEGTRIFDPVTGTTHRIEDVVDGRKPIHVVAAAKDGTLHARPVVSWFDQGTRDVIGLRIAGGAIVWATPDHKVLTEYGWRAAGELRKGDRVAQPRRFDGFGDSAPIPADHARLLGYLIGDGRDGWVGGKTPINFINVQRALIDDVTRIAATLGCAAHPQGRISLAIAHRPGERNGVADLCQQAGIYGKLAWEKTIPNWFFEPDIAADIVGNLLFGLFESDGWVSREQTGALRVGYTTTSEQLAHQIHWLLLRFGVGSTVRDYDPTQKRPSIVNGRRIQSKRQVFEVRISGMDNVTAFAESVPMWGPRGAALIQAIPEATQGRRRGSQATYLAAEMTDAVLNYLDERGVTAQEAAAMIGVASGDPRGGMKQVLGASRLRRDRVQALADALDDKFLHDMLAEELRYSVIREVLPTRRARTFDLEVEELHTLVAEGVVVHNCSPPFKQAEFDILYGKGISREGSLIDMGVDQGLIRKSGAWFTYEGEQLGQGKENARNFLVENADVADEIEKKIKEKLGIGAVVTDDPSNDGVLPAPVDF

[2] = biological target: T2, Replicative DNA helicase DnaB (Mycobacterium tuberculosis, UniProt P9WMR3); assay: DnaB intein splicing inhibitors, dose response, biochemical, cell-free fluorescence (AID 449749); type: functional
T2 sequence (P9WMR3 whole entry): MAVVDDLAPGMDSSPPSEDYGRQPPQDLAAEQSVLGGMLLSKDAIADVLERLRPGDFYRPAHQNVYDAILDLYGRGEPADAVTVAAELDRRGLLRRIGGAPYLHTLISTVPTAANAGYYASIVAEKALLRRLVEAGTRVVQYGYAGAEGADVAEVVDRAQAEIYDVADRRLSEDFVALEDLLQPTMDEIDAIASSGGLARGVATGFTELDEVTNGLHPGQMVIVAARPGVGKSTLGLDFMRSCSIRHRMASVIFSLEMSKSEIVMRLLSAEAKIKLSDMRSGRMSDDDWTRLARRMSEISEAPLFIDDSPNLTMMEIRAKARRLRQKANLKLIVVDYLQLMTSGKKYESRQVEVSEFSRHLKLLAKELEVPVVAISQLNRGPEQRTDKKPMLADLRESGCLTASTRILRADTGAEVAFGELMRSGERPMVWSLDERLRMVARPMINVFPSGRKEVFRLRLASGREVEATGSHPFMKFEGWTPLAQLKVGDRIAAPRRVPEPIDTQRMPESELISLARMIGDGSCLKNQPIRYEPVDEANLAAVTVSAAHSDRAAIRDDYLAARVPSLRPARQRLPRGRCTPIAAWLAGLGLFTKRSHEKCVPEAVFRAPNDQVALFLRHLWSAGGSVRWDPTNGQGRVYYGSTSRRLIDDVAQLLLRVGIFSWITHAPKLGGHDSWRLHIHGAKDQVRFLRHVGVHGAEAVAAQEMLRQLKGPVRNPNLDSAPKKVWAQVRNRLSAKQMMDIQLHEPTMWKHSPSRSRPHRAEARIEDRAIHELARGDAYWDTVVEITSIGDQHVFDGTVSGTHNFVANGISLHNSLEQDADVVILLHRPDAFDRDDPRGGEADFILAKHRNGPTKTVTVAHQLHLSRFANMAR

[3] = biological target: T3, RNA-binding protein pos-1 (Caenorhabditis elegans, UniProt G5EF15); assay: disruptors of C. elegans POS-1 RNA interaction – biochemical, fluorescence polarization, dose response (AID 1964);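 also: purified POS-1 fused to maltose binding protein made in E. coli; potency of compounds blocking POS-1 binding to fluorescent RNA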
T3 sequence (G5EF15 whole entry): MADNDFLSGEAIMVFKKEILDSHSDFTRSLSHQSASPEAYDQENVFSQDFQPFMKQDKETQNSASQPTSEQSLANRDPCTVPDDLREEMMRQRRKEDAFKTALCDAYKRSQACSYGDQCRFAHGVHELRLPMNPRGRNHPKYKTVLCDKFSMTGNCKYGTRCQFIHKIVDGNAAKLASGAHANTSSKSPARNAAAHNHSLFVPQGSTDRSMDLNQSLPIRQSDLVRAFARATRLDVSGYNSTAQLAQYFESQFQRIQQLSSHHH

[4] = biological target: T4, Zinc finger protein mex-5 (Caenorhabditis elegans, UniProt Q9XUB2); assay: potency of MEX-5 RNA-binding blockers – biochemical, C. elegans, fluorescence polarization, dose response (AID 1960)
T4 sequence (Q9XUB2 whole entry): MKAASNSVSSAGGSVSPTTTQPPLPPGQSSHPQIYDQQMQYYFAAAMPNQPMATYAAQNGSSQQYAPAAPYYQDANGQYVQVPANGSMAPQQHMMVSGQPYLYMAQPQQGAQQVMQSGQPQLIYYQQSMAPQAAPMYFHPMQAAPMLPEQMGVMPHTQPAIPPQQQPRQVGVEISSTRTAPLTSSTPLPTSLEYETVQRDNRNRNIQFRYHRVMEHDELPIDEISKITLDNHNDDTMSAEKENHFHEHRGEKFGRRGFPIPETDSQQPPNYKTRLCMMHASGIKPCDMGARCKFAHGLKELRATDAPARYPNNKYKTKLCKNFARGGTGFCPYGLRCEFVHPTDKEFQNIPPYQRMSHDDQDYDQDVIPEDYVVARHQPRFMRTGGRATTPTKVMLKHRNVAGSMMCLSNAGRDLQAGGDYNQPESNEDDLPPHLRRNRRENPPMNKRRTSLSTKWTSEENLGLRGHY

[5] = test system: Streptococcus sp. 'group A'; assay: Streptococcus pyogenes SK(-)GAS viability under kanamycin – luminescence, BacTiterGlo, confirmation, counter-screen for streptokinase expression inhibitor project, dose response (AID 1900); type: functional, organism-based
Streptococcus = assay: GAS UMAA2166 growth inhibition – luminescence, BacTiterGlo, counter-screen for streptokinase expression inhibitor project, dose response (AID 1915); type: functional, organism-based;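 also: potency for reduction of bacterial viability or growth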
Streptokinase A = biological target: T5, Streptokinase A (Streptococcus pyogenes serotype M1, UniProt P10520); assay: viability-normalized secreted streptokinase activity reduction – plasminogen activation absorbance, OD405, dose response (AID 1914); type: functional, Streptococcus pyogenes M1 GAS;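 also: secreted streptokinase activity via plasminogen activation per viability signal from cell pellet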
T5 sequence (P10520 whole entry): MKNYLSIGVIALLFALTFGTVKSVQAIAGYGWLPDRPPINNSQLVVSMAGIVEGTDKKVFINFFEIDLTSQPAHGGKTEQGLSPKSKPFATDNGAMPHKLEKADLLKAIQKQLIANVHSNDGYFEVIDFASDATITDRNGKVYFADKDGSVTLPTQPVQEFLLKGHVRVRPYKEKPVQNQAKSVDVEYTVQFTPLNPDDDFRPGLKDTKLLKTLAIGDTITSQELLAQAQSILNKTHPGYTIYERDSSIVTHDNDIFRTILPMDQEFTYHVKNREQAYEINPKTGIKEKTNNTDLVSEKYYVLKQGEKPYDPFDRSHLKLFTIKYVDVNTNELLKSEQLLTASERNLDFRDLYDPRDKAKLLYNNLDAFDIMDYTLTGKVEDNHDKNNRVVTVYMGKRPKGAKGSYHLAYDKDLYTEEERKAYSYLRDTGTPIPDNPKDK

H4 = assay: Luminescence Cell-Based Dose Response HTS to Identify Activators of 5'UTR Stem-Loop Driven Prion Protein mRNA Translation in H4 Neuroglioblastoma Cells. [Related pubchem assays: 1829 (Project Summary), 1814 (Primary HTS)]; type: functional; details: Homo sapiens
[6] = Luminescence Cell-Based Dose Response HTS to Identify Activators of Luciferase Translation or Activity in H4 […] Cells. [Related pubchem assays: 1829 (Project Summary), 1814 (Primary HTS)]; type: functional
[7] = non-specific 3'UTR reporter inhibition in Clone20-Shn3RL – cell-based, Renilla luciferase, cherry-picked, counter-screen for Shn3 inhibitor project, dose response (AID 624133); type: functional
[8] = biological target: T6, Heat shock factor protein 1 (Mus musculus, UniProt P38532); assay: decrease of HSF1-responsive luciferase luminescence – cell-based, NIH3T3, dose retest, confirmation (AID 2382); type: functional;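 also: NIH3T3 fibroblasts with HSF1-driven luciferase reporter stressed by proteasome inhibitor MG132; luminescence from HSF1-driven luciferase expression after 8 hours of MG132 stress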
T6 sequence (P38532 whole entry): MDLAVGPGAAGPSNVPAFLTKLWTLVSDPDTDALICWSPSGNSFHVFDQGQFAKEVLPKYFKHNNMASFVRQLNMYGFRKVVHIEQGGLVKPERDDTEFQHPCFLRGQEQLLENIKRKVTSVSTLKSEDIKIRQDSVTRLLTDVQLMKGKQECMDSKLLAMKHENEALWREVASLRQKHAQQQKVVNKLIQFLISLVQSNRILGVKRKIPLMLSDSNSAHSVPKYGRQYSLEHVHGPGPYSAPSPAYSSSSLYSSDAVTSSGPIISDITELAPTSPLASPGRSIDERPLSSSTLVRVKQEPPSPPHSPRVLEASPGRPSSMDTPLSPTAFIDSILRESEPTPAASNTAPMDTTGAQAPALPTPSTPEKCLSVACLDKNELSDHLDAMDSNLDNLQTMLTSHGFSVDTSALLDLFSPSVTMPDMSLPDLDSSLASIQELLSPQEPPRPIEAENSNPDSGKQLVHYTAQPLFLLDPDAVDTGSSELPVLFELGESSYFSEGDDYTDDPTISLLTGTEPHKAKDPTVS

[9] = reduction of Shn3 3'UTR-driven luciferase in osteoblasts – cell-based, Clone20 osteoblasts, firefly luciferase, cherry-picked, dose response (AID 624132); type: functional;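 also: firefly luciferase luminescence from reporter carrying the Shn3 3'UTR in osteoblasts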

CCc1ccc(Nc2nnc(SCc3cc(=O)n4ccsc4n3)s2)cc1
CC50 [1]: 26.4 µM (active)

Cc1c(-c2nn(C)c(=O)c3ccccc23)oc2ccc(F)cc2c1=O
EC50 (Protein RecA): 2.51 µM (active)
AC50 [2]: 3.86 µM (active)

CN(CC(=O)Nc1ccc(N2CCOCC2)cc1)CC(=O)Nc1cccc(C#N)c1
EC50 (Protein RecA): > 380 µM (inactive)
AC50 [2]: 199 µM (active)

CCCCC1=CC2=C(c3ccco3)C(=O)C(C)(OC(=O)c3ccc(OC)cc3)C(=O)C2=CN1C1CCCC1 (stereo not drawn)
EC50 [3]: 16 µM (active)
EC50 [4]: 14.3 µM (active)

CC(C)OC(=O)C(C#N)c1nc2ccccc2nc1N1CCCC1 (stereo not drawn)
EC50 [3]: > 300 µM (not active)
EC50 [4]: > 300 µM (not active)

COc1ccc(C2C(C#N)=C(N)OC3=C2C(=O)CC(C)(C)C3)cc1OC (stereo not drawn)
EC50 [3]: > 300 µM (not active)
EC50 [4]: > 300 µM (not active)

CC(=O)Nc1ccc(N/C=C/C(=O)c2ccc(C)o2)cc1
EC50 [3]: > 300 µM (not active)
EC50 [4]: > 300 µM (not active)

Cc1ccccc1OCC(=O)Nc1ccc2c(c1)C(=O)c1ccccc1C2=O
EC50 [3]: 36.1 µM (active)
EC50 [4]: > 300 µM (not active)

COC(=O)CC1=NN(c2ccccc2)C(=O)C1
EC50 (Protein RecA): 4.42 µM (active)
AC50 [2]: 13.2 µM (active)

O=C(c1ccc(Br)s1)N1CCN(c2ccccn2)CC1
EC50 [3]: > 300 µM (not active)
EC50 [4]: > 300 µM (not active)

CCc1cc(C(=O)c2ccc(C)cc2)c(NC(=O)CCl)s1
EC50 (Protein RecA): 1.07 µM (active)
AC50 [2]: 3.98 µM (active)

Cc1ccc(C2C(C#N)=C(N)Oc3[nH]nc(-c4cccnc4)c32)o1 (stereo not drawn)
EC50 (Protein RecA): 6.46 µM (active)
AC50 [2]: 25.6 µM (active)

O=S(=O)(c1ccccc1F)N1CCC(c2nc(O)c3nnn(Cc4ccc(F)cc4)c3n2)CC1
CC50 [1]: 27 µM (active)

O=C1CCSc2ccc(Cl)cc2N1Cc1ccc(Cl)cc1
CC50 [1]: 23.4 µM (active)
EC50 [5]: 7.8 µM (active)
EC50 (Streptococcus): 49.5 µM (active)
EC50 (Streptokinase A): 18.4 µM (active)

Cc1ccc([N+](=O)[O-])cc1S(=O)(=O)N(C(=O)c1ccncc1)c1ccc2oc3c(c2c1)CCCC3
EC50 (Protein RecA): 10.8 µM (active)
AC50 [2]: 42 µM (active)

Cc1nn(Cc2ccccc2)c2c1C(c1ccccc1)C(C#N)=C(N)O2 (stereo not drawn)
EC50 (Protein RecA): 3.64 µM (active)
AC50 [2]: 8.53 µM (active)

Cc1ccc(C)c(N2CCN(S(=O)(=O)c3ccc(-c4cc(C)no4)s3)CC2)c1
CC50 [1]: > 50 µM (active)

CC(C)(c1ccccc1)c1ccc(OCC2CO2)cc1 (stereo not drawn)
EC50 (Protein RecA): 11.9 µM (active)
AC50 [2]: 10 µM (active)

COC(=O)Cc1n[nH]c2c1C(c1ccc(O)c(OC)c1)C(C#N)=C(N)O2 (stereo not drawn)
EC50 (Protein RecA): 2.88 µM (active)
AC50 [2]: 7.51 µM (inconclusive)

O=C(CNC(=O)c1ccc(F)cc1)c1ccc(Cl)cc1
EC50 (H4): 79 µM (active)
EC50 [6]: 0.717 µM (active)

C=CC/N=C1/S/C(=C/c2cccc([N+](=O)[O-])c2)C(=O)N1CC=C
CC50 [1]: 28 µM (active)

COCCN1Cc2cccc(C(=O)Nc3ccc4c(c3)OCCO4)c2C1=O
AC50 [7]: 19.1 µM (active)
EC50 [8]: 11.6 µM (active)
AC50 [9]: 27.1 µM (active)
